Measurements from patent US8192962B2, “Processes for detecting toxic substances” (Daikin Industries, Ltd., priority 2001, dated 2012).

Test system: Metabolism protein genes
Assay: DNA chip mRNA expression in yeast, metabolism protein genes (Table 7)
Assay type: cell-based, Saccharomyces cerevisiae S288C
Procedure, shortened: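 Values are treated/untreated fluorescence ratios from a whole-genome yeast DNA chip hybridized over 12 hours at 65° C with Cy3- or Cy5-labelled cDNA from poly(A) mRNA. Log-phase S288C yeast in YPD at 25° C had received a single toxic chemical for two hours, dosed to slow growth without killing.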

C=CC=O [(14), acrolein]
4.2: The level of expressed mRNA in the presence of chemical substance/The level of expressed mRNA in the absence of chemical substance (yeast gene YPR167C)
7.5: The level of expressed mRNA in the presence of chemical substance/The level of expressed mRNA in the absence of chemical substance (yeast gene YNL331C)
1.0: The level of expressed mRNA in the presence of chemical substance/The level of expressed mRNA in the absence of chemical substance (yeast gene YKL152C) | The level of expressed mRNA in the presence of chemical substance/The level of expressed mRNA in the absence of chemical substance (yeast gene YKL215C) | level of expressed mRNA in the presence/in the absence of chemical substance (yeast gene YLR006C) | level of expressed mRNA in the presence/in the absence of chemical substance (yeast gene YLR081W) | The level of expressed mRNA in the presence of chemical substance/The level of expressed mRNA in the absence of chemical substance (yeast gene YLR348C) | The level of expressed mRNA in the presence of chemical substance/The level of expressed mRNA in the absence of chemical substance (yeast gene YMR105C) | The level of expressed mRNA in the presence of chemical substance/The level of expressed mRNA in the absence of chemical substance (yeast gene YNL012W) | The level of expressed mRNA in the presence of chemical substance/The level of expressed mRNA in the absence of chemical substance (yeast gene YNR019W) | The level of expressed mRNA in the presence of chemical substance/The level of expressed mRNA in the absence of chemical substance (yeast gene YNR059W) | level of expressed mRNA in the presence/in the absence of chemical substance (yeast gene YOR178C) | level of expressed mRNA in the presence/in the absence of chemical substance (yeast gene YPR165W)
1.6: The level of expressed mRNA in the presence of chemical substance/The level of expressed mRNA in the absence of chemical substance (yeast gene YMR189W) | The level of expressed mRNA in the presence of chemical substance/The level of expressed mRNA in the absence of chemical substance (yeast gene YPL017C) | level of expressed mRNA in the presence/in the absence of chemical substance (yeast gene YPL148C)
9.1: The level of expressed mRNA in the presence of chemical substance/The level of expressed mRNA in the absence of chemical substance (yeast gene YOL165C)
1.2: The level of expressed mRNA in the presence of chemical substance/The level of expressed mRNA in the absence of chemical substance (yeast gene YKR039W) | The level of expressed mRNA in the presence of chemical substance/The level of expressed mRNA in the absence of chemical substance (yeast gene YML100W) | level of expressed mRNA in the presence/in the absence of chemical substance (yeast gene YMR323W) | level of expressed mRNA in the presence/in the absence of chemical substance (yeast gene YNL025C) | The level of expressed mRNA in the presence of chemical substance/The level of expressed mRNA in the absence of chemical substance (yeast gene YNL322C) | The level of expressed mRNA in the presence of chemical substance/The level of expressed mRNA in the absence of chemical substance (yeast gene YNR002C) | The level of expressed mRNA in the presence of chemical substance/The level of expressed mRNA in the absence of chemical substance (yeast gene YOL126C) | level of expressed mRNA in the presence/in the absence of chemical substance (yeast gene YOR103C) | level of expressed mRNA in the presence/in the absence of chemical substance (yeast gene YOR348C)
0.9: The level of expressed mRNA in the presence of chemical substance/The level of expressed mRNA in the absence of chemical substance (yeast gene YKL213C) | level of expressed mRNA in the presence/in the absence of chemical substance (yeast gene YLR354C) | level of expressed mRNA in the presence/in the absence of chemical substance (yeast gene YML022W) | The level of expressed mRNA in the presence of chemical substance/The level of expressed mRNA in the absence of chemical substance (yeast gene YNL104C) | The level of expressed mRNA in the presence of chemical substance/The level of expressed mRNA in the absence of chemical substance (yeast gene YNL169C) | The level of expressed mRNA in the presence of chemical substance/The level of expressed mRNA in the absence of chemical substance (yeast gene YNL231C) | The level of expressed mRNA in the presence of chemical substance/The level of expressed mRNA in the absence of chemical substance (yeast gene YNR033W) | level of expressed mRNA in the presence/in the absence of chemical substance (yeast gene YOL108C) | level of expressed mRNA in the presence/in the absence of chemical substance (yeast gene YOL116W) | level of expressed mRNA in the presence/in the absence of chemical substance (yeast gene YOL156W) | level of expressed mRNA in the presence/in the absence of chemical substance (yeast gene YOR002W) | level of expressed mRNA in the presence/in the absence of chemical substance (yeast gene YOR108W) | The level of expressed mRNA in the presence of chemical substance/The level of expressed mRNA in the absence of chemical substance (yeast gene YOR347C)
2.1: The level of expressed mRNA in the presence of chemical substance/The level of expressed mRNA in the absence of chemical substance (yeast gene YML054C)
3.0: The level of expressed mRNA in the presence of chemical substance/The level of expressed mRNA in the absence of chemical substance (yeast gene YNL332W)
0.8: level of expressed mRNA in the presence/in the absence of chemical substance (yeast gene YKL060C) | The level of expressed mRNA in the presence of chemical substance/The level of expressed mRNA in the absence of chemical substance (yeast gene YKL104C) | level of expressed mRNA in the presence/in the absence of chemical substance (yeast gene YKL148C) | level of expressed mRNA in the presence/in the absence of chemical substance (yeast gene YKL157W) | The level of expressed mRNA in the presence of chemical substance/The level of expressed mRNA in the absence of chemical substance (yeast gene YLL058W) | level of expressed mRNA in the presence/in the absence of chemical substance (yeast gene YMR015C) | level of expressed mRNA in the presence/in the absence of chemical substance (yeast gene YMR083W) | The level of expressed mRNA in the presence of chemical substance/The level of expressed mRNA in the absence of chemical substance (yeast gene YNL045W) | level of expressed mRNA in the presence/in the absence of chemical substance (yeast gene YOR142W) | level of expressed mRNA in the presence/in the absence of chemical substance (yeast gene YOR176W) | level of expressed mRNA in the presence/in the absence of chemical substance (yeast gene YPL028W)
1.8: The level of expressed mRNA in the presence of chemical substance/The level of expressed mRNA in the absence of chemical substance (yeast gene YMR081C) | The level of expressed mRNA in the presence of chemical substance/The level of expressed mRNA in the absence of chemical substance (yeast gene YMR271C)
4.0: The level of expressed mRNA in the presence of chemical substance/The level of expressed mRNA in the absence of chemical substance (yeast gene YOL151W)
0.5: level of expressed mRNA in the presence/in the absence of chemical substance (yeast gene YLR044C) | level of expressed mRNA in the presence/in the absence of chemical substance (yeast gene YMR205C)
3.8: The level of expressed mRNA in the presence of chemical substance/The level of expressed mRNA in the absence of chemical substance (yeast gene YLR303W)
0.6: The level of expressed mRNA in the presence of chemical substance/The level of expressed mRNA in the absence of chemical substance (yeast gene YLR180W) | The level of expressed mRNA in the presence of chemical substance/The level of expressed mRNA in the absence of chemical substance (yeast gene YLR300W) | level of expressed mRNA in the presence/in the absence of chemical substance (yeast gene YLR372W) | level of expressed mRNA in the presence/in the absence of chemical substance (yeast gene YMR011W) | level of expressed mRNA in the presence/in the absence of chemical substance (yeast gene YMR261C) | level of expressed mRNA in the presence/in the absence of chemical substance (yeast gene YOL086C)
1.5: The level of expressed mRNA in the presence of chemical substance/The level of expressed mRNA in the absence of chemical substance (yeast gene YKL091C) | The level of expressed mRNA in the presence of chemical substance/The level of expressed mRNA in the absence of chemical substance (yeast gene YOL058W) | The level of expressed mRNA in the presence of chemical substance/The level of expressed mRNA in the absence of chemical substance (yeast gene YOL153C) | The level of expressed mRNA in the presence of chemical substance/The level of expressed mRNA in the absence of chemical substance (yeast gene YPR026W)
0.7: level of expressed mRNA in the presence/in the absence of chemical substance (yeast gene YLR056W) | level of expressed mRNA in the presence/in the absence of chemical substance (yeast gene YLR058C) | level of expressed mRNA in the presence/in the absence of chemical substance (yeast gene YLR089C) | level of expressed mRNA in the presence/in the absence of chemical substance (yeast gene YLR304C) | The level of expressed mRNA in the presence of chemical substance/The level of expressed mRNA in the absence of chemical substance (yeast gene YMR008C) | The level of expressed mRNA in the presence of chemical substance/The level of expressed mRNA in the absence of chemical substance (yeast gene YMR296C) | level of expressed mRNA in the presence/in the absence of chemical substance (yeast gene YNL192W) | level of expressed mRNA in the presence/in the absence of chemical substance (yeast gene YOR085W) | The level of expressed mRNA in the presence of chemical substance/The level of expressed mRNA in the absence of chemical substance (yeast gene YOR099W) | level of expressed mRNA in the presence/in the absence of chemical substance (yeast gene YOR128C) | level of expressed mRNA in the presence/in the absence of chemical substance (yeast gene YPL057C) | level of expressed mRNA in the presence/in the absence of chemical substance (yeast gene YPR183W)
1.3: The level of expressed mRNA in the presence of chemical substance/The level of expressed mRNA in the absence of chemical substance (yeast gene YLR273C) | level of expressed mRNA in the presence/in the absence of chemical substance (yeast gene YLR284C) | The level of expressed mRNA in the presence of chemical substance/The level of expressed mRNA in the absence of chemical substance (yeast gene YLR299W) | The level of expressed mRNA in the presence of chemical substance/The level of expressed mRNA in the absence of chemical substance (yeast gene YML070W) | The level of expressed mRNA in the presence of chemical substance/The level of expressed mRNA in the absence of chemical substance (yeast gene YNL037C) | The level of expressed mRNA in the presence of chemical substance/The level of expressed mRNA in the absence of chemical substance (yeast gene YOR130C) | level of expressed mRNA in the presence/in the absence of chemical substance (yeast gene YPR113W)
1.1: level of expressed mRNA in the presence/in the absence of chemical substance (yeast gene YKR034W) | The level of expressed mRNA in the presence of chemical substance/The level of expressed mRNA in the absence of chemical substance (yeast gene YMR020W) | The level of expressed mRNA in the presence of chemical substance/The level of expressed mRNA in the absence of chemical substance (yeast gene YNL106C) | level of expressed mRNA in the presence/in the absence of chemical substance (yeast gene YOR251C) | The level of expressed mRNA in the presence of chemical substance/The level of expressed mRNA in the absence of chemical substance (yeast gene YOR336W) | level of expressed mRNA in the presence/in the absence of chemical substance (yeast gene YPL135W)
1.9: The level of expressed mRNA in the presence of chemical substance/The level of expressed mRNA in the absence of chemical substance (yeast gene YLR307W)
